Data: the supplement of paper PMC10307832

Tests used:
Experiment in all cases: relative viability (nuclei count vs DMSO), 5 days (fraction); higher = more cells survive
RERF-LC-KJ = tested on: RERF-LC-KJ
Summary of the method: (§1)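 Relative viability was taken as the ratio of nuclei in treated wells to nuclei in vehicle wells. Lung cancer cell lines in 1536-well plates received compounds by pin tool one day after seeding, either one drug alone or a fixed anchor-drug dose plus five library-drug doses (not always all listed) in √10 steps. Nuclei were counted on 4× images after 5 days of treatment, and values are medians of duplicate plates.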

CAL-12T = tested on: CAL-12T
Summary of the method: as §1

NCI-H2405 = tested on: NCI-H2405
Summary of the method: as §1

LXF-289 = tested on: LXF-289
Summary of the method: as §1

HCC-827 = tested on: HCC-827
Summary of the method: as §1

NCI-H647 = tested on: NCI-H647
Summary of the method: as §1

NCI-H1395 = tested on: NCI-H1395
Summary of the method: as §1

NCI-H322M = tested on: NCI-H322M
Summary of the method: as §1

HOP-62 = tested on: HOP-62
Summary of the method: as §1

HCC-44 = tested on: HCC-44
Summary of the method: as §1

NCI-H1793 = tested on: NCI-H1793
Summary of the method: as §1

NCI-H1944 = tested on: NCI-H1944
Summary of the method: as §1

LCLC-97TM1 = tested on: LCLC-97TM1
Summary of the method: as §1

NCI-H3122 = tested on: NCI-H3122
Summary of the method: as §1

NCI-H2087 = tested on: NCI-H2087
Summary of the method: as §1

LCLC-103H = tested on: LCLC-103H
Summary of the method: as §1

NCI-H1437 = tested on: NCI-H1437
Summary of the method: as §1

201T = tested on: 201T
Summary of the method: as §1

BEN = tested on: BEN
Summary of the method: as §1

NCI-H727 = tested on: NCI-H727
Summary of the method: as §1

For `O=C(O)c1ccc(-c2c[nH]c3ncc(-c4ccccc4)cc23)cc1C1CCCC1` + NC(=O)Nc1cc(-c2cccc(F)c2)sc1C(=O)N[C@H]1CCCNC1 [AZD7762] (partner 0.2 µM), the relative viability (RERF-LC-KJ; first compound 0.04 µM) was 0.569, the relative viability (RERF-LC-KJ; first compound 0.4 µM) was 1.06 and the relative viability (RERF-LC-KJ; first compound 1.265 µM) was 0.935. It also gave a relative viability (CAL-12T; first compound 0.04 µM) of 0.632, a relative viability (CAL-12T; first compound 0.1265 µM) of 0.698 and a relative viability (CAL-12T; first compound 0.4 µM) of 0.629. The relative viability (CAL-12T; first compound 1.265 µM) was 0.671, the relative viability (NCI-H2405; first compound 0.04 µM) was 0.73 and the relative viability (NCI-H2405; first compound 0.1265 µM) was 0.919. For the same compound, the relative viability (NCI-H2405; first compound 0.4 µM) was 0.767, the relative viability (NCI-H2405; first compound 1.265 µM) was 0.583 and the relative viability (LXF-289; first compound 0.04 µM) was 1.07. It also gave a relative viability (LXF-289; first compound 0.1265 µM) of 1.25, a relative viability (LXF-289; first compound 0.4 µM) of 1.02 and a relative viability (LXF-289; first compound 1.265 µM) of 0.922. It also gave a relative viability (HCC-827; first compound 0.04 µM) of 0.168, a relative viability (HCC-827; first compound 0.1265 µM) of 0.191 and a relative viability (HCC-827; first compound 0.4 µM) of 0.242. It also gave a relative viability (HCC-827; first compound 1.265 µM) of 0.203, a relative viability (NCI-H647; first compound 0.04 µM) of 0.437 and a relative viability (NCI-H647; first compound 0.1265 µM) of 0.55. For the same compound, the relative viability (NCI-H647; first compound 0.4 µM) was 0.489, the relative viability (NCI-H647; first compound 1.265 µM) was 0.408 and the relative viability (NCI-H1395; first compound 0.04 µM) was 0.416. It also gave a relative viability (NCI-H1395; first compound 0.1265 µM) of 0.416, a relative viability (NCI-H1395; first compound 0.4 µM) of 0.409 and a relative viability (NCI-H1395; first compound 1.265 µM) of 0.462. The relative viability (NCI-H322M; first compound 0.04 µM) was 0.585, the relative viability (NCI-H322M; first compound 0.1265 µM) was 0.631 and the relative viability (NCI-H322M; first compound 0.4 µM) was 0.625. For the same compound, the relative viability (NCI-H322M; first compound 1.265 µM) was 0.65, the relative viability (HOP-62; first compound 0.04 µM) was 0.618 and the relative viability (HOP-62; first compound 0.1265 µM) was 0.795. For the same compound, the relative viability (HOP-62; first compound 0.4 µM) was 0.637, the relative viability (HOP-62; first compound 1.265 µM) was 0.674 and the relative viability (HCC-44; first compound 0.04 µM) was 1.07. For the same compound, the relative viability (HCC-44; first compound 0.1265 µM) was 1.03, the relative viability (HCC-44; first compound 0.4 µM) was 1.01 and the relative viability (HCC-44; first compound 1.265 µM) was 0.946. It also gave a relative viability (NCI-H1793; first compound 0.04 µM) of 0.513, a relative viability (NCI-H1793; first compound 0.1265 µM) of 0.752 and a relative viability (NCI-H1793; first compound 0.4 µM) of 0.544. It also gave a relative viability (NCI-H1793; first compound 1.265 µM) of 0.798, a relative viability (NCI-H1944; first compound 0.04 µM) of 0.464 and a relative viability (NCI-H1944; first compound 0.1265 µM) of 0.622. For the same compound, the relative viability (NCI-H1944; first compound 0.4 µM) was 0.637, the relative viability (NCI-H1944; first compound 1.265 µM) was 0.802 and the relative viability (LCLC-97TM1; first compound 0.04 µM) was 0.278. It also gave a relative viability (LCLC-97TM1; first compound 0.1265 µM) of 0.368, a relative viability (LCLC-97TM1; first compound 0.4 µM) of 0.302 and a relative viability (LCLC-97TM1; first compound 1.265 µM) of 0.268. The relative viability (NCI-H3122; first compound 0.04 µM) was 0.97, the relative viability (NCI-H3122; first compound 0.1265 µM) was 1.04 and the relative viability (NCI-H3122; first compound 0.4 µM) was 1.05. It also gave a relative viability (NCI-H3122; first compound 1.265 µM) of 0.999, a relative viability (NCI-H2087; first compound 0.04 µM) of 1.29 and a relative viability (NCI-H2087; first compound 0.1265 µM) of 1.44. The relative viability (NCI-H2087; first compound 0.4 µM) was 1.23, the relative viability (NCI-H2087; first compound 1.265 µM) was 1.11 and the relative viability (LCLC-103H; first compound 0.04 µM) was 0.832. It also gave a relative viability (LCLC-103H; first compound 0.1265 µM) of 0.822, a relative viability (LCLC-103H; first compound 0.4 µM) of 0.846 and a relative viability (LCLC-103H; first compound 1.265 µM) of 0.759. It also gave a relative viability (NCI-H1437; first compound 0.04 µM) of 1.15, a relative viability (NCI-H1437; first compound 0.1265 µM) of 1.21 and a relative viability (NCI-H1437; first compound 0.4 µM) of 1.15. It also gave a relative viability (NCI-H1437; first compound 1.265 µM) of 0.934, a relative viability (201T; first compound 0.04 µM) of 0.599 and a relative viability (201T; first compound 0.1265 µM) of 0.654. It also gave a relative viability (201T; first compound 0.4 µM) of 0.664, a relative viability (201T; first compound 1.265 µM) of 0.663 and a relative viability (BEN; first compound 0.04 µM) of 0.529. The relative viability (BEN; first compound 0.1265 µM) was 0.775, the relative viability (BEN; first compound 0.4 µM) was 0.698 and the relative viability (BEN; first compound 1.265 µM) was 0.771. It also gave a relative viability (NCI-H727; first compound 0.04 µM) of 0.459, a relative viability (NCI-H727; first compound 0.1265 µM) of 0.672 and a relative viability (NCI-H727; first compound 0.4 µM) of 0.679. For the same compound, the relative viability (NCI-H727; first compound 1.265 µM) was 0.612.
